A short description of this test: Vasorelaxant activity against carbachol chloride-induced contraction in guinea pig trachea treated 30 mins after carbachol chloride challenge. The test is classed as functional, tissue-based, Cavia porcellus.

Structures are written as SMILES.

In general, EC50 refers to the midpoint of the concentration-response curve. On to `COc1cc(O)c2c(=O)c(O)c(-c3ccccc3)oc2c1OC` [GNAPHALIIN B], for which the EC50 worked out at 63.05 µg/mL.

As for `Cn1c(=O)c2[nH]cnc2n(C)c1=O` [AMINOPHYLLINE], the EC50 (read-out: EC50) is 534 µM.

On to `COc1c(-c2ccccc2)oc2c(OC)c(O)cc(O)c2c1=O` [GNAPHALIIN], for which the 50% effective concentration (EC50) is 43.1 µg/mL.

The values above are taken from ChEMBL document CHEMBL1152356, “Solving the confusion of gnaphaliin structure: gnaphaliin A and gnaphaliin B identified as active principles of Gnaphalium liebmannii with tracheal smooth muscle relaxant properties” (J Nat Prod, 2009).
